Consider three molecules from article PMC12693701, “Glucosinolate-Derived Metabolites from Barbarea vulgaris (Brassicaceae): Evaluation of Antimicrobial, Antioxidant, and Anti-Inflammatory Potentials” (Molecules, 2025).

In one experiment the test system is S. aureus ATCC 25923. In words: Microdilution MIC/MMC with resazurin. The class given is cell-based, Staphylococcus aureus. The settings on record: for MIC: Staphylococcus aureus, ATCC25923. As for the experimental part:
(§1) The antimicrobial activity was evaluated against 15 microorganisms. This included 11 bacterial strains: four standard strains (Staphylococcus aureus ATCC 25923, Bacillus subtilis ATCC 6633, Bacillus pumilus NCTC 8241, and Escherichia coli ATCC 25922) and six clinical or environmental isolates (Staphylococcus aureus, Escherichia coli, Bacillus cereus, Proteus mirabilis, Salmonella enterica, and Klebsiella pneumoniae). One probiotic strain, Bifidobacterium animalis subsp. lactis was tested. In addition, four fungal strains, Candida albicans ATCC 10231, Trichoderma viride ATCC 13233, Aspergillus flavus ATCC 9170, and Fusarium solani ATCC 11712 were tested. The bacterial strains were kept in glycerol stock at −80 °C and the fungal strains in paraffin oil stock at 4 °C.
(§2) Bacterial and yeast suspensions were prepared using the direct colony method, as previously described by Andrews. The turbidity of the initial suspensions was adjusted to match the 0.5 McFarland standard using a densitometer (Biosan, Riga, Latvia), corresponding to approximately 10^8 colony-forming units (CFU)/mL for bacterial cells and 10^6 CFU/mL for yeast cells. Subsequently, 1:100 dilutions of the initial suspensions were prepared in sterile 0.85% saline. Fungal spore suspensions were obtained by gently harvesting spores from agar slopes containing mature mycelial growth. The collected spore suspensions were then diluted 1:1000 in sterile 0.85% saline prior to use.
(§3) Antimicrobial activity was evaluated by determining the minimum inhibitory concentration (MIC) and minimum microbicidal concentration (MMC) using the microdilution plate method with resazurin as an indicator [28]. In the 96-well plates, 100 μL of Mueller–Hinton broth (Torlak, Belgrade, Serbia) for bacterial testing and Sabouraud broth (Torlak, Belgrade, Serbia) for fungal testing were dispensed into each well. The compounds under investigation were initially dissolved in a 10% dimethyl sulfoxide (DMSO) solution, followed by dilution in sterile distilled water, resulting in a working compound solution containing 1% DMSO. A 100 μL aliquot of the stock solution of the tested compound was added to the first row, and twofold serial dilutions were then carried out using a multichannel pipette. The resulting concentration range was from 5 to 0.039 mg/mL. The inoculated microtiter plates were incubated at 37 °C for 24 h for bacteria, at 28 °C for 48 h for yeasts, and at 28 °C for 72 h for molds.
(§4) Each test also included growth control and sterility control. All tests were conducted in duplicate. MIC was defined as the lowest concentration of tested compounds that prevented resazurin color change from blue to pink. For molds, MIC values of the tested compound were determined as the lowest concentration that inhibited visible mycelia growth. MMC was determined by inoculation of the nutrient agar medium by plating […] of samples from wells, where no indicator color change was recorded. At the end of the incubation period, the lowest concentration with no growth (no colony) was defined as MMC.
(§5) Doxycycline, ampicillin and amphotericin B (- Sigma-Aldrich, St. Louis, MO, USA) and ketoconazole (Hemofarm A.D., Vršac, Serbia) were dissolved in a nutrient liquid medium. Doxycycline is a broad-spectrum antibiotic effective against both aerobic and anaerobic Gram-positive and Gram-negative bacteria. Ampicillin, a beta-lactam antibiotic, primarily targets Gram-positive bacteria but also some Gram-negative strains. Amphotericin B is an antifungal drug often used for serious systemic fungal infections and is one of the effective treatments for fungal infections caused by Aspergillus sp. Ketoconazole is an antifungal agent used to inhibit the growth of Candida species.

The test system of the next experiment is S. aureus. Kind of experiment: Microdilution MIC/MMC with resazurin. The format is cell-based, Staphylococcus aureus. As to conditions: for MIC: Staphylococcus aureus. As for the experimental part:
as §1, §2, §3, §4, §5

Another experiment has as its system K. pneumoniae. In words: Microdilution MIC/MMC with resazurin. The settings on record: for MIC: Klebsiella pneumoniae. The class given is cell-based, Klebsiella pneumoniae. As for the experimental part:
as §1, §2, §3, §4, §5
On the technique in general: Dilution methods test growth across graded concentrations, often in twofold steps.

In a further experiment the test system is C. albicans ATCC 10231. Kind of experiment: Microdilution MIC/MMC with resazurin. The format is cell-based, Candida albicans. The settings on record: for MIC: Candida albicans, ATCC10231. The method, then:
as §1, §2, §3, §4, §5

In the next experiment the test system is A. flavus ATCC 9170. In words: Microdilution MIC/MMC. The format is cell-based, Aspergillus flavus. As for the experimental part:
as §1, §2, §3, §4, §5

In a further experiment the test system is F. solani ATCC 11712. Kind of experiment: Microdilution MIC/MMC. The class given is cell-based, Fusarium solani. The method, then:
as §1, §2, §3, §4, §5

Experiment [1] is described as follows: DPPH radical scavenging assay. The settings on record: mean ± SD. As for the experimental part: The DPPH assay was used to assess the ability of the tested compounds to scavenge reactive radical species. Stock solutions of the investigated compounds were prepared in DMSO and then diluted with methanol to a final volume of 1000 µL. An equal volume of a 50 µM DPPH solution in methanol was then added to the prepared mixture. The final concentrations of the test compounds were 25, 50, and 100 µM. After thorough mixing, the samples were incubated in the dark at room temperature for 20 to 60 min. Methanol was used as a blank, and absorbance was measured at 517 nm after incubation. All measurements were performed in triplicate.
In general terms: DPPH is a stable violet radical that fades when it is reduced.

The nature of experiment [2]: ABTS radical scavenging assay. As to conditions: mean ± SD. The method, then: The ABTS radical cation solution was prepared following the previously described protocol. Different concentrations of the analyzed samples were prepared in DMSO. The test samples were prepared following the specified procedure: 20 µL of sample was combined with 980 µL of methanol, followed by the addition of 1000 µL of ABTS solution. Absorbance was measured at 734 nm. All measurements were performed in triplicate.

The mark [3] stands for this setting: S. aureus ATCC 25923, compounds 1–8.
[4] abbreviates: S. aureus ATCC 25923, compounds 1–8, read-out: MIC.
[5] abbreviates: S. aureus isolate, compounds 1–8.
Where [6] appears, read: S. aureus isolate, compounds 1–8, read-out: MIC.
Setting [7] is: K. pneumoniae, compounds 1–8, read-out: MIC.
The mark [8] stands for this setting: C. albicans ATCC 10231, compounds 1–8.
Setting [9] is: C. albicans ATCC 10231, compounds 1–8, read-out: MIC.
Setting [10] is: A. flavus ATCC 9170, compounds 1–8.
The mark [11] stands for this setting: Aspergillus flavus, ATCC9170, A. flavus ATCC 9170, compounds 1–8, read-out: MIC.
Where [12] appears, read: F. solani ATCC 11712, compounds 1–8.
Setting [13] is: Fusarium solani, ATCC11712, F. solani ATCC 11712, compounds 1–8, read-out: MIC.

Molecules are shown by their SMILES. In brackets after ≈: the same amount, converted by molar mass. Like-named read-outs stand apart in the source and are kept apart here.

Broadly, the MIC is the lowest concentration that inhibits growth of the organism.

`O=C1NCC(c2ccccc2)S1` (centres unmarked) [Compound 6, 5-phenyl-1,3-thiazolidin-2-one]: the MMC in the experiment with S. aureus ATCC 25923 (setting [3]) is on record as more than 5 mg/mL; in the experiment on S. aureus (setting [5]), more than 5 mg/mL; in the experiment on K. pneumoniae (K. pneumoniae, compounds 1–8) it was more than 5 mg/mL; with C. albicans ATCC 10231 (setting [8]), more than 5 mg/mL; in the experiment on A. flavus ATCC 9170 (setting [10]), more than 5 mg/mL; in the experiment with F. solani ATCC 11712 (setting [12]) it was more than 5 mg/mL. Further, the MIC in the experiment with S. aureus ATCC 25923 (setting [4]), in the experiment with S. aureus (setting [6]), in the experiment on K. pneumoniae (setting [7]), in the experiment with C. albicans ATCC 10231 (setting [9]), in the experiment on A. flavus ATCC 9170 (setting [11]) and with F. solani ATCC 11712 (setting [13]) was more than 5000 mg/L each time. Moreover, the “DPPH Scavenging Ability” value in experiment [1] (25 µM, 20 min) was 3.1 ± 0.6%; in experiment [1] (25 µM, 60 min), 3.0 ± 0.7%; in experiment [1] (50 µM, 20 min) it was 4.2 ± 0.8%; in experiment [1] (50 µM, 60 min), 4.6 ± 0.6%; in experiment [1] (100 µM, 20 min) it was 5.9 ± 0.9%; in experiment [1] (100 µM, 60 min) it was 5.8 ± 1.4%. The “ABTS Scavenging Ability” value in experiment [2] (25 µM) is reported as 2.6 ± 0.7%; in experiment [2] (50 µM), 3.9 ± 1.2%; in experiment [2] (100 µM), 5.1 ± 0.9%.
Regarding `O=C1NCC(c2ccccc2)O1` (centres unmarked) [Compound 7, 5-Phenyl-1,3-oxazolidin-2-one], the MMC in the experiment on S. aureus ATCC 25923 (setting [3]) is reported as 5 mg/mL; in the experiment with S. aureus (setting [5]), 5 mg/mL; in the experiment with K. pneumoniae (K. pneumoniae, compounds 1–8) it was 2.5 mg/mL; with C. albicans ATCC 10231 (setting [8]) it was 5 mg/mL; with A. flavus ATCC 9170 (setting [10]) it was 2.5 mg/mL; in the experiment on F. solani ATCC 11712 (setting [12]), 2.5 mg/mL. Besides, the MIC turned out to be 5000 mg/L (≈ 30.6 mM) in the experiment on S. aureus ATCC 25923 (setting [4]); 2500 mg/L (≈ 15.3 mM) in the experiment on S. aureus (setting [6]); 2500 mg/L (≈ 15.3 mM) in the experiment with K. pneumoniae (setting [7]); 2500 mg/L (≈ 15.3 mM) with C. albicans ATCC 10231 (setting [9]); 2500 mg/L (≈ 15.3 mM) in the experiment with A. flavus ATCC 9170 (setting [11]); 2500 mg/L (≈ 15.3 mM) in the experiment with F. solani ATCC 11712 (setting [13]). Moreover, the “DPPH Scavenging Ability” value in experiment [1] (25 µM, 20 min) came out at 1.1 ± 0.4%; in experiment [1] (25 µM, 60 min), 0.9 ± 0.7%; in experiment [1] (50 µM, 20 min), 1.5 ± 0.9%; in experiment [1] (50 µM, 60 min), 1.5 ± 0.8%; in experiment [1] (100 µM, 20 min), 2.6 ± 1.0%; in experiment [1] (100 µM, 60 min), 2.7 ± 1.5%. Further, the “ABTS Scavenging Ability” value in experiment [2] (25 µM) was determined as 1.3 ± 0.1%; in experiment [2] (50 µM), 2.7 ± 1.0%; in experiment [2] (100 µM), 3.9 ± 0.4%.
In the case of `Oc1ccc(CCN=C=S)cc1` [Compound 8, 2-(4-hydroxyphenyl)ethyl isothiocyanate], the MMC is given as 0.625 mg/mL with S. aureus ATCC 25923 (setting [3]); 0.312 mg/mL in the experiment with S. aureus (setting [5]); 0.625 mg/mL in the experiment with K. pneumoniae (K. pneumoniae, compounds 1–8); 2.5 mg/mL in the experiment on C. albicans ATCC 10231 (setting [8]); less than 0.039 mg/mL in the experiment with A. flavus ATCC 9170 (setting [10]); less than 0.039 mg/mL in the experiment on F. solani ATCC 11712 (setting [12]). Besides, the MIC is 156 mg/L (≈ 0.87 mM) in the experiment on S. aureus ATCC 25923; 78 mg/L (≈ 0.435 mM) with S. aureus; 312 mg/L (≈ 1.74 mM) against K. pneumoniae; 2500 mg/L (≈ 13.9 mM) with C. albicans ATCC 10231; less than 39 mg/L with A. flavus ATCC 9170 (setting [10]); less than 39 mg/L against A. flavus ATCC 9170 (Aspergillus flavus, ATCC9170). Moreover, the MIC in the experiment on F. solani ATCC 11712 (setting [12]) is less than 39 mg/L; against F. solani ATCC 11712 (Fusarium solani, ATCC11712) it was less than 39 mg/L. Further, the “DPPH Scavenging Ability” value in experiment [1] (25 µM, 20 min) is given as 4.4 ± 1.0%; in experiment [1] (25 µM, 60 min), 4.7 ± 1.2%; in experiment [1] (50 µM, 20 min), 7.3 ± 1.3%; in experiment [1] (50 µM, 60 min), 8.1 ± 1.3%; in experiment [1] (100 µM, 20 min), 13.1 ± 0.7%; in experiment [1] (100 µM, 60 min), 14.2 ± 0.9%. In addition, the “ABTS Scavenging Ability” value in experiment [2] (25 µM) came out at 2.9 ± 1.3%; in experiment [2] (50 µM), 6.8 ± 1.1%; in experiment [2] (100 µM) it was 11.9 ± 0.8%.
